Assay results taken from patent US8283361B2 (AstraZeneca AB, priority 2008, dated 2012).

Molecular target: S. aureus GyrB ATPase (Staphylococcus aureus, UniProt P0A0K8)
Experiment: biochemical
Conditions: compound at 1 μM; one value per test if tested more than once; read-out: % Inhibition of S. aureus GyrB ATPase
Method in brief: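 IC50 values derive from 10-point titrations of compound (in DMSO). Phosphate formed from 250 μM ATP was quantified by acidic molybdate/malachite green after quenching.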

Sequence of S. aureus GyrB ATPase (P0A0K8 whole entry): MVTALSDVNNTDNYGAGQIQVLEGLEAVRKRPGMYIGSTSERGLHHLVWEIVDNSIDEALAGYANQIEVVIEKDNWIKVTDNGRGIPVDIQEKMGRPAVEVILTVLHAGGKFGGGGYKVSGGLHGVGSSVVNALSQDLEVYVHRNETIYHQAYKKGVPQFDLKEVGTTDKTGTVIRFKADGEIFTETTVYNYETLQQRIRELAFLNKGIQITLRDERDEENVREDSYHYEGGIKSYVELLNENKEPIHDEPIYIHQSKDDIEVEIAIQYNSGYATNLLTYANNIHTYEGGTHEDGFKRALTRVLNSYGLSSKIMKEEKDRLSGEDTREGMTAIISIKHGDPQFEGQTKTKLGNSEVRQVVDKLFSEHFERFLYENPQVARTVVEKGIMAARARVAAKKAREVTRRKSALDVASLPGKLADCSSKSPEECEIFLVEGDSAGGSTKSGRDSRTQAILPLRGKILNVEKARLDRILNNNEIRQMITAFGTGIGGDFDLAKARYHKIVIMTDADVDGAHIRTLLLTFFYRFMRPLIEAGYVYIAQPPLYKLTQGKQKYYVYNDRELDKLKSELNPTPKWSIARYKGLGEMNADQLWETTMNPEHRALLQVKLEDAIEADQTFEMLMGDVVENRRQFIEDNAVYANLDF
Sequence of S. aureus GyrB ATPase (P0AES4 whole entry, further chain): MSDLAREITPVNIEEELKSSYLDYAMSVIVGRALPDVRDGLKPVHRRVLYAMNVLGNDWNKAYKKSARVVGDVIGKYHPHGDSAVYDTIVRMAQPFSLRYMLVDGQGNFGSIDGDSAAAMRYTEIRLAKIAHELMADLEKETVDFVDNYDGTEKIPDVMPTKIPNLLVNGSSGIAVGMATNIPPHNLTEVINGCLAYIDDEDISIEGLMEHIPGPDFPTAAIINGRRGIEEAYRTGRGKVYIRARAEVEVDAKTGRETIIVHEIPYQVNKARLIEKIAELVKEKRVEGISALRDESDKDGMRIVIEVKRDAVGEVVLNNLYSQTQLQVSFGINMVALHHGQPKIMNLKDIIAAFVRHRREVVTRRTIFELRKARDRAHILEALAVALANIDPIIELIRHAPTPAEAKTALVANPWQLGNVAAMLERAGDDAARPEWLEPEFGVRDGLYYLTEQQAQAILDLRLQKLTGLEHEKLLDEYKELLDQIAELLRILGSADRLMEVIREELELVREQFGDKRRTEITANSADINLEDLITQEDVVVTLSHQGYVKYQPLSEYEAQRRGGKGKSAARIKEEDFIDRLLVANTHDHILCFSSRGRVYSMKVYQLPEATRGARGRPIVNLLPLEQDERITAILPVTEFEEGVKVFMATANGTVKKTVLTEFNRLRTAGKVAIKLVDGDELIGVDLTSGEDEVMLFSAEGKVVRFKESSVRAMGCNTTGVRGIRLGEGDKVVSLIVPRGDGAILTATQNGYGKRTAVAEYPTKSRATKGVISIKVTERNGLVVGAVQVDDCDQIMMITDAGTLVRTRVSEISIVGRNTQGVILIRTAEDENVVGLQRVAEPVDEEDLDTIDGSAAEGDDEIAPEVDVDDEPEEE

Compound	inhibition at 1 µM
CCNC(=O)Nc1cc(-c2nc(C(F)(F)F)cs2)c(-c2ccc3c(=O)c(C(=O)NCCN4CCN(C)CC4)cn(CCC(C)C)c3c2)cn1 [Example 340, 7-{6-[(ethylcarbamoyl)amino]-4-[4-(trifluoromethyl)-1,3-thiazol-2-yl]pyridin-3-yl}-1-(3-methylbutyl)-N-[2-(4-methylpiperazin-1-yl)ethyl]-4-oxo-1,4-dihydroquinoline-3-carboxamide]	93%
CCNC(=O)Nc1cc(-c2nc(C(F)(F)F)cs2)c(-c2ccc3c(=O)c(C(=O)NC)cn(CC(C)C)c3c2)cn1 [Example 341, 7-{6-[(ethylcarbamoyl)amino]-4-[4-(trifluoromethyl)-1,3-thiazol-2-yl]pyridin-3-yl}-N-methyl-1-(2-methylpropyl)-4-oxo-1,4-dihydroquinoline-3-carboxamide]	99%
CCNC(=O)Nc1cc(-c2nc(C(F)(F)F)cs2)c(-c2ccc3c(=O)c(C(=O)NCCO)cn(CC(C)C)c3c2)cn1 [Example 342, 7-{6-[(ethylcarbamoyl)amino]-4-[4-(trifluoromethyl)-1,3-thiazol-2-yl]pyridin-3-yl}-N-(2-hydroxyethyl)-1-(2-methylpropyl)-4-oxo-1,4-dihydroquinoline-3-carboxamide]	99%
CCNC(=O)Nc1cc(-c2nc(C(F)(F)F)cs2)c(-c2ccc3c(=O)c(C(=O)NCCCO)cn(CC(C)C)c3c2)cn1 [Example 343, 7-{6-[(ethylcarbamoyl)amino]-4-[4-(trifluoromethyl)-1,3-thiazol-2-yl]pyridin-3-yl}-N-(3-hydroxypropyl)-1-(2-methylpropyl)-4-oxo-1,4-dihydroquinoline-3-carboxamide]	98%
CCNC(=O)Nc1cc(-c2nc(C(F)(F)F)cs2)c(-c2ccc3c(=O)c(C(=O)NCCN(C)C)cn(CC(C)C)c3c2)cn1 [Example 344, N-[2-(dimethylamino)ethyl]-7-{6-[(ethylcarbamoyl)amino]-4-[4-(trifluoromethyl)-1,3-thiazol-2-yl]pyridin-3-yl}-1-(2-methylpropyl)-4-oxo-1,4-dihydroquinoline-3-carboxamide]	95%
CCNC(=O)Nc1cc(-c2nc(C(F)(F)F)cs2)c(-c2ccc3c(=O)c(C(=O)NCCN4CCOCC4)cn(CC(C)C)c3c2)cn1 [Example 345, 7-{6-[(ethylcarbamoyl)amino]-4-[4-(trifluoromethyl)-1,3-thiazol-2-yl]pyridin-3-yl}-1-(2-methylpropyl)-N-[2-(morpholin-4-yl)ethyl]-4-oxo-1,4-dihydroquinoline-3-carboxamide]	98%
CCNC(=O)Nc1cc(-c2nc(C(F)(F)F)cs2)c(-c2ccc3c(=O)c(C(=O)NCCN4CCN(C)CC4)cn(CC(C)C)c3c2)cn1 [Example 346, 7-{6-[(ethylcarbamoyl)amino]-4-[4-(trifluoromethyl)-1,3-thiazol-2-yl]pyridin-3-yl}-N-[2-(4-methylpiperazin-1-yl)ethyl]-1-(2-methylpropyl)-4-oxo-1,4-dihydroquinoline-3-carboxamide]	87%
CCCn1cc(C(=O)NC)c(=O)c2ccc(-c3cnc(NC(=O)NCC)cc3-c3nc(C(F)(F)F)cs3)cc21 [Example 347, 7-{6-[(ethylcarbamoyl)amino]-4-[4-(trifluoromethyl)-1,3-thiazol-2-yl]pyridin-3-yl}-N-methyl-4-oxo-1-propyl-1,4-dihydroquinoline-3-carboxamide]	100%
CCCn1cc(C(=O)NCCO)c(=O)c2ccc(-c3cnc(NC(=O)NCC)cc3-c3nc(C(F)(F)F)cs3)cc21 [Example 348, 7-{6-[(ethylcarbamoyl)amino]-4-[4-(trifluoromethyl)-1,3-thiazol-2-yl]pyridin-3-yl}-N-(2-hydroxyethyl)-4-oxo-1-propyl-1,4-dihydroquinoline-3-carboxamide]	98%
CCCn1cc(C(=O)NCCCO)c(=O)c2ccc(-c3cnc(NC(=O)NCC)cc3-c3nc(C(F)(F)F)cs3)cc21 [Example 349, 7-{6-[(ethylcarbamoyl)amino]-4-[4-(trifluoromethyl)-1,3-thiazol-2-yl]pyridin-3-yl}-N-(3-hydroxypropyl)-4-oxo-1-propyl-1,4-dihydroquinoline-3-carboxamide]	108%
CCCn1cc(C(=O)NCCN(C)C)c(=O)c2ccc(-c3cnc(NC(=O)NCC)cc3-c3nc(C(F)(F)F)cs3)cc21 [Example 350, N-[2-(dimethylamino)ethyl]-7-{6-[(ethylcarbamoyl)amino]-4-[4-(trifluoromethyl)-1,3-thiazol-2-yl]pyridin-3-yl}-4-oxo-1-propyl-1,4-dihydroquinoline-3-carboxamide]	96%
CCCn1cc(C(=O)NCCN2CCOCC2)c(=O)c2ccc(-c3cnc(NC(=O)NCC)cc3-c3nc(C(F)(F)F)cs3)cc21 [Example 351, 7-{6-[(ethylcarbamoyl)amino]-4-[4-(trifluoromethyl)-1,3-thiazol-2-yl]pyridin-3-yl}-N-[2-(morpholin-4-yl)ethyl]-4-oxo-1-propyl-1,4-dihydroquinoline-3-carboxamide]	95%
CCCn1cc(C(=O)NCCN2CCN(C)CC2)c(=O)c2ccc(-c3cnc(NC(=O)NCC)cc3-c3nc(C(F)(F)F)cs3)cc21 [Example 352, 7-{6-[(Ethylcarbamoyl)amino]-4-[4-(trifluoromethyl)-1,3-thiazol-2-yl]pyridin-3-yl}-N-[2-(4-methylpiperazin-1-yl)ethyl]-4-oxo-1-propyl-1,4-dihydroquinoline-3-carboxamide]	88%
CCNC(=O)Nc1cc(-c2nc(C(F)(F)F)cs2)c(-c2ccc3c(=O)c(C(=O)NC)cn(Cc4ccccc4)c3c2)cn1 [Example 353, 1-Benzyl-7-{6-[(ethylcarbamoyl)amino]-4-[4-(trifluoromethyl)-1,3-thiazol-2-yl]pyridin-3-yl}-N-methyl-4-oxo-1,4-dihydroquinoline-3-carboxamide]	99%
CCNC(=O)Nc1cc(-c2nc(C(F)(F)F)cs2)c(-c2ccc3c(=O)c(C(=O)NCCO)cn(Cc4ccccc4)c3c2)cn1 [Example 354, 1-Benzyl-7-{6-[(ethylcarbamoyl)amino]-4-[4-(trifluoromethyl)-1,3-thiazol-2-yl]pyridin-3-yl}-N-(2-hydroxyethyl)-4-oxo-1,4-dihydroquinoline-3-carboxamide]	98%
CCNC(=O)Nc1cc(-c2nc(C(F)(F)F)cs2)c(-c2ccc3c(=O)c(C(=O)NCCCO)cn(Cc4ccccc4)c3c2)cn1 [Example 355, 1-Benzyl-7-{6-[(ethylcarbamoyl)amino]-4-[4-(trifluoromethyl)-1,3-thiazol-2-yl]pyridin-3-yl}-N-(3-hydroxypropyl)-4-oxo-1,4-dihydroquinoline-3-carboxamide]	87%
CCNC(=O)Nc1cc(-c2nc(C(F)(F)F)cs2)c(-c2ccc3c(=O)c(C(=O)NCCN(C)C)cn(Cc4ccccc4)c3c2)cn1 [Example 356, 1-Benzyl-N-[2-(dimethylamino)ethyl]-7-{6-[(ethylcarbamoyl)amino]-4-[4-(trifluoromethyl)-1,3-thiazol-2-yl]pyridin-3-yl}-4-oxo-1,4-dihydroquinoline-3-carboxamide]	85%
CCNC(=O)Nc1cc(-c2nc(C(F)(F)F)cs2)c(-c2ccc3c(=O)c(C(=O)NCCN4CCOCC4)cn(Cc4ccccc4)c3c2)cn1 [Example 357, 1-Benzyl-7-{6-[(ethylcarbamoyl)amino]-4-[4-(trifluoromethyl)-1,3-thiazol-2-yl]pyridin-3-yl}-N-[2-(morpholin-4-yl)ethyl]-4-oxo-1,4-dihydroquinoline-3-carboxamide]	87%
